# Data from patent publication US20240294522A1 (Lead Discovery Center GmbH, priority 2021, published 2024).
# pIC50: −log10 of the molar value.
# Key:
# GRK5 = molecular target: T1, GRK5 (Homo sapiens, UniProt P34947); assay: Lance Kinase Activity Assay, GRK5; conditions: biochemical Lance kinase activity assay; class symbols A-F; read-out: GRK5 LANCE Assay (IC-50)
# T1 construct: purchased Thermo Scientific
# Outline: (§1)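 IC50s from sigmoidal dose-response over 0.0025-10 μM compound, with phosphorylated ULight substrate detected by Eu anti-phospho antibody FRET after EDTA quench.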
# GRK2 = molecular target: T2, GRK2 (Homo sapiens, UniProt P25098); assay: Lance Kinase Activity Assay, GRK2; conditions: biochemical Lance kinase activity assay; class symbols A-F; read-out: GRK2 LANCE Assay (IC-50)
# T2 construct: purchased Thermo Scientific
# T2 sequence (P25098 1-689): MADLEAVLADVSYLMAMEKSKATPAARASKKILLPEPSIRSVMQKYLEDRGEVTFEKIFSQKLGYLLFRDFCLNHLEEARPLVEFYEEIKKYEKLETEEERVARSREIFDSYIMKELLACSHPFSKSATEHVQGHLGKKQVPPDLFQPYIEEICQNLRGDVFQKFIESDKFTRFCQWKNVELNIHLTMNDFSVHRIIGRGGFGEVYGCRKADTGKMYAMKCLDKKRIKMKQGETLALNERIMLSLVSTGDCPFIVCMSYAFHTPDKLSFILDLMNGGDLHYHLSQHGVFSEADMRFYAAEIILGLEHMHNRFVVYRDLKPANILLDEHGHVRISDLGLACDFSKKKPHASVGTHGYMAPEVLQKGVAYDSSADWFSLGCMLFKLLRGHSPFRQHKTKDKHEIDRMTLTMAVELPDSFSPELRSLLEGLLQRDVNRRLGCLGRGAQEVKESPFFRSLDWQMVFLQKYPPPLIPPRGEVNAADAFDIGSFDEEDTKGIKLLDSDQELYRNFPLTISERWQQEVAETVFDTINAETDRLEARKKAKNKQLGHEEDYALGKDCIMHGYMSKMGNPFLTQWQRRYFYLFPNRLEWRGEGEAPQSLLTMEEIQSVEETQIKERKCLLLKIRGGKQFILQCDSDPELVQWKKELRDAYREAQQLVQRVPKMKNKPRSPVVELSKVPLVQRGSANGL
# Outline: as §1
# T1 sequence (P34947 whole entry): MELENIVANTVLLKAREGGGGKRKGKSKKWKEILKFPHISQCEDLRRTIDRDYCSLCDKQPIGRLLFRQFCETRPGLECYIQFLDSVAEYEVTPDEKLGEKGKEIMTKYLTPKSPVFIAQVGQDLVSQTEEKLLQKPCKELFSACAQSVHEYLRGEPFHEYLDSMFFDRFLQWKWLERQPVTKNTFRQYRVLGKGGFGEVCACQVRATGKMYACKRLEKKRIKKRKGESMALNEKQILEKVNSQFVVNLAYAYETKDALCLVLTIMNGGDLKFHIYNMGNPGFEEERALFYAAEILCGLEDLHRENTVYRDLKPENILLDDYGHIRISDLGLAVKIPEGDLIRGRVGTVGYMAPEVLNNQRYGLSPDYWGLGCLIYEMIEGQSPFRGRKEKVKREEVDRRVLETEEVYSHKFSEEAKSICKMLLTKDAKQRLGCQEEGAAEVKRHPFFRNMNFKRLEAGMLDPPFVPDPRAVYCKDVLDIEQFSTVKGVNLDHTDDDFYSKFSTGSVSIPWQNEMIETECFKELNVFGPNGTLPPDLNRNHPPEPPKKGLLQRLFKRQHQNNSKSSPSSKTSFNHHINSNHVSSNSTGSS
Compound,pIC50 (GRK5),pIC50 (GRK2)
"COc1cc(C(C)NC(=O)/C(C#N)=C/c2c[nH]c3ncc(-c4cnn(C)c4)cc23)ccc1[S+](C)[O-] (stereo not drawn) [Example 256, (E)-2-cyano-N-(1-(3-methoxy-4-(methylsulfinyl)phenyl)ethyl)-3-(5-(1-methyl-1H-pyrazol-4-yl)-1H-pyrrolo[2,3-b]pyridin-3-yl)acrylamide]",7.00 to 7.30,5.00 to 6.00
"COc1ccc([C@@H](C)NC(=O)/C=C/c2c[nH]c3ncc(-c4cccc(CS(C)(=O)=O)c4)cc23)cc1OC [Example 217, (R,E)-N-(1-(3,4-dimethoxyphenyl)ethyl)-3-(5-(3-((methylsulfonyl)methyl)phenyl)-1H-pyrrolo[2,3-b]pyridin-3-yl)acrylamide]",≥ 7.30,5.00 to 6.00
COc1ccc([C@@H](C)NC(=O)/C(C#N)=C/c2c[nH]c3ncc(-c4cn[nH]c4)cc23)cc1OC [Example 163],≥ 7.30,5.00 to 6.00
"COc1ccc([C@@H](C)NC(=O)/C(C#N)=C/c2c[nH]c3ncc(-c4cccc(N(C)C)c4)cc23)cc1OC [Example 128, (R,E)-2-cyano-N-(1-(3,4-dimethoxyphenyl)ethyl)-3-(5-(3-(dimethylamino)phenyl)-1H-pyrrolo[2,3-b]pyridin-3-yl)acrylamide]",6.30 to 7.00,< 5.00
"COc1ccc([C@@H](C)NC(=O)/C=C/c2c[nH]c3ncc(-c4cccc(-c5ncc[nH]5)c4)cc23)cc1OC [Example 199, (R,E)-3-(5-(3-(1H-imidazol-2-yl)phenyl)-1H-pyrrolo[2,3-b]pyridin-3-yl)-N-(1-(3,4-dimethoxyphenyl)ethyl)acrylamide]",≥ 7.30,< 5.00
"CC[S+]([O-])c1cccc(-c2cnc3[nH]cc(/C=C/C(=O)N[C@H](C)c4ccc(OC)c(OC)c4)c3c2)c1 (stereo partly drawn) [Example 191, (E)-N-((R)-1-(3,4-dimethoxyphenyl)ethyl)-3-(5-(3-(ethylsulfinyl)phenyl)-1H-pyrrolo[2,3-b]pyridin-3-yl)acrylamide]",≥ 7.30,5.00 to 6.00
"COc1ccc([C@@H](C)NC(=O)/C(C#N)=C/c2c[nH]c3ncc(-c4ccc(N(C)C)nc4)cc23)cc1OC [Example 147, (R,E)-2-cyano-N-(1-(3,4-dimethoxyphenyl)ethyl)-3-(5-(6-(dimethylamino)pyridin-3-yl)-1H-pyrrolo[2,3-b]pyridin-3-yl)acrylamide]",≥ 7.30,5.00 to 6.00
"COc1ccc([C@@H](C)NC(=O)/C=C/c2c[nH]c3nccc(-c4cccc(C(N)=O)c4)c23)cc1OC [Example 233, (R,E)-3-(3-(3-((1-(3,4-dimethoxyphenyl)ethyl)amino)-3-oxoprop-1-en-1-yl)-1H-pyrrolo[2,3-b]pyridin-4-yl)benzamide]",7.00 to 7.30,5.00 to 6.00

# Other lines, results leading:
pIC50 (GRK5),pIC50 (GRK2),Compound
≥ 7.30,6.00 to 6.30,"COc1ccc([C@@H](C)NC(=O)/C(C#N)=C/c2c[nH]c3ncc(C)cc23)cc1OC [Example 87, (R,E)-2-cyano-N-(1-(3,4-dimethoxyphenyl)ethyl)-3-(5-methyl-1H-pyrrolo[2,3-b]pyridin-3-yl)acrylamide]"
6.30 to 7.00,6.00 to 6.30,"C[C@@H](NC(=O)/C(C#N)=C/c1c[nH]c2nccc(Cl)c12)c1ccc(F)cc1 [Example 78, (R,E)-3-(4-chloro-1H-pyrrolo[2,3-b]pyridin-3-yl)-2-cyano-N-(1-(4-fluorophenyl)ethyl)acrylamide]"
7.00 to 7.30,6.30 to 7.00,"C[C@@H](NC(=O)/C(C#N)=C/c1c[nH]c2ncccc12)c1cccc(Cl)c1 [Example 13, (R,E)-N-(1-(3-chlorophenyl)ethyl)-2-cyano-3-(1H-pyrrolo[2,3-b]pyridin-3-yl)acrylamide]"
≥ 7.30,6.30 to 7.00,"C[C@@H](NC(=O)/C(C#N)=C/c1c[nH]c2ncc(-c3cnn(C)c3)cc12)c1cccc(Cl)c1 [Example 96, (R,E)-N-(1-(3-chlorophenyl)ethyl)-2-cyano-3-(5-(1-methyl-1H-pyrazol-4-yl)-1H-pyrrolo[2,3-b]pyridin-3-yl)acrylamide]"
